Data taken from patent US20260272878A1, “ADAR1 INHIBITORS AND USES THEREOF” (THE WISTAR INSTITUTE OF ANATOMY AND BIOLOGY, priority 2023, published 2026).

Legend:
ADAR = ADAR (Homo sapiens, UniProt P55265); details: literature study; cited from earlier work
ADAR1p110-WT = target: T1, ADAR1p110-WT (Homo sapiens, UniProt P55265); experiment: Biacore SPR binding to ADAR1p110-WT
T1 construct: made in house; host or cells: Sf9 cells (baculovirus)
T1 sequence (P55265 1-931 isoform P55265-5): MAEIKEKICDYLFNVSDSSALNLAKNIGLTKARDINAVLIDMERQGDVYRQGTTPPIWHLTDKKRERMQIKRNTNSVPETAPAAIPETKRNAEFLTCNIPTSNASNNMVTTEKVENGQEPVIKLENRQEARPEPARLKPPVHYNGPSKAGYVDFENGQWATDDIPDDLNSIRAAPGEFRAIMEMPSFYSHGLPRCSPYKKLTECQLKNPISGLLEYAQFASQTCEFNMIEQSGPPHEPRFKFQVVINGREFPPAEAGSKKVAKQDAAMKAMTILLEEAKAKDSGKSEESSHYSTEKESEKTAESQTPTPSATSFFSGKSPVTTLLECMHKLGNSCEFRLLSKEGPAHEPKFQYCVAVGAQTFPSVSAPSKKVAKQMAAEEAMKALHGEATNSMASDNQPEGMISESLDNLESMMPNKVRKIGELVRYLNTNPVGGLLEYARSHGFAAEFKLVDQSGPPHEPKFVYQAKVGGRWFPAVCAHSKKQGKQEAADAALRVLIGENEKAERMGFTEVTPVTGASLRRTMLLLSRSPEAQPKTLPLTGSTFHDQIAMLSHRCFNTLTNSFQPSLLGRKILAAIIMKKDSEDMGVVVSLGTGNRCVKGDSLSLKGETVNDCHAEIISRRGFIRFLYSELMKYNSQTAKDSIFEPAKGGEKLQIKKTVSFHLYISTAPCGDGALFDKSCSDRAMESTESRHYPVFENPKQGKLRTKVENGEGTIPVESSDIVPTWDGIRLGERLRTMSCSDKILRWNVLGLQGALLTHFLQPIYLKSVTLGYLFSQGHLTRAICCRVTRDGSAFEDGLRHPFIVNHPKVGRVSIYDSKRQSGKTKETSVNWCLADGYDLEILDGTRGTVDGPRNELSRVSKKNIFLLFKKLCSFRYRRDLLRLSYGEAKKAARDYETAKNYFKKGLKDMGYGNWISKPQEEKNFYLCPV
From the text: FIGS. 5A-5D show Biacore SPR analysis for binding of ADAR1i to ADAR1p110. (FIG. 5A) SPR analysis for binding kinetics of 8 compounds to ADAR1p110-WT. ADAR1 inhibition positive (ADAR1i-13, ADAR1i-120, ADAR1i-124) and negative compounds. (FIG. 5B, FIG. 5C) […] of SPR analysis for binding of ADAR1i-13 and ADAR1i-124 to ADAR1p110-WT and ADAR1p110-E912A as well as negative control proteins, GAPDH and HuR, are shown. […] ADAR1-E912, equivalent of ADAR2 E396, is located in the catalytic center.
No complete 3-D structure of ADAR1 is currently available. […] The glutamate E912 and E396 in ADAR1 and ADAR2, respectively, plays an important proton transfer function during hydrolytic deamination reaction (42, 43).

HeLa-Nluc-edit cells = experiment: First screen: FFL activity (cell viability/apoptosis) in reporter HeLa cells; details: FIG. 2C

Chain of ADAR (P55265 whole entry, species assumed): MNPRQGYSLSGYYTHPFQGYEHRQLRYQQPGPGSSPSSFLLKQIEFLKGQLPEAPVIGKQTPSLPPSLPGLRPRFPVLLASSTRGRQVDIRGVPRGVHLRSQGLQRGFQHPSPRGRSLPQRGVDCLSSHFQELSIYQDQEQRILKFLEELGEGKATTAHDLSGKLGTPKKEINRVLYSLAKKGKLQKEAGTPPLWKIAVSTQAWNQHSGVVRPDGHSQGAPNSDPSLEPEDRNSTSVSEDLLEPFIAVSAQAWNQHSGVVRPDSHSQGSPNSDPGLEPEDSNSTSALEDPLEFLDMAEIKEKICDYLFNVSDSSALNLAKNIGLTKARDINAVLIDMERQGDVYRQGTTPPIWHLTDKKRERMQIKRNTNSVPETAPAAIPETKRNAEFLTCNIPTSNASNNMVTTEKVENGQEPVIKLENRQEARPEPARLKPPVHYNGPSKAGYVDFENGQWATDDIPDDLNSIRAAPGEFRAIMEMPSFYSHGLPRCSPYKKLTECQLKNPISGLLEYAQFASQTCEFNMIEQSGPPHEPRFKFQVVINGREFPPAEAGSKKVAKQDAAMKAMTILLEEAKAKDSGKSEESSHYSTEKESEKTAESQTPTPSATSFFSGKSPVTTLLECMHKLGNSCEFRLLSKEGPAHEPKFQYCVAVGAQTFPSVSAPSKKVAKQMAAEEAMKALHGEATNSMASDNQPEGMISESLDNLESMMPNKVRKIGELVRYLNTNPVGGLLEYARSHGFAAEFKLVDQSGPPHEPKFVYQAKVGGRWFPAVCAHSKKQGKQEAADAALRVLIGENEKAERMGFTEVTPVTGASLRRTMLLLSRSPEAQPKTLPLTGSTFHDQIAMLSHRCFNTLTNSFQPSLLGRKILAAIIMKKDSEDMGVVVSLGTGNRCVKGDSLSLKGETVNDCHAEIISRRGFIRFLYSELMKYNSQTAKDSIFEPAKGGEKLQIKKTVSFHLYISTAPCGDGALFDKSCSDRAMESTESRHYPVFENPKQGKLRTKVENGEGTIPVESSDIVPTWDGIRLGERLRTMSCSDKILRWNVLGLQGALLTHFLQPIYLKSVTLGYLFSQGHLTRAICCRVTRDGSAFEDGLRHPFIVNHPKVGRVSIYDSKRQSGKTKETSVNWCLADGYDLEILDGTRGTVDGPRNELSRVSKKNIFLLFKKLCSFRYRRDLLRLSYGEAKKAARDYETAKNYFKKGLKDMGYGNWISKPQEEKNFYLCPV

SMILES	Binding to ADAR1p110-WT (ADAR1p110-WT)	further results
Nc1ncnc2c1nnn2[C@@H]1O[C@H](CO)[C@@H](O)[C@H]1O [8-azaadenosine]		ADAR inhibition (ADAR): not ADAR inhibitors
Nc1ncnc2c1nc(Cl)n2[C@@H]1O[C@H](CO)[C@@H](O)[C@H]1O [8-chloroadenosine]		ADAR inhibition (ADAR): not ADAR inhibitors
N#Cc1ccc(NC(=O)c2nc3ccccc3[nH]2)cc1 [ADAR1i-122]	did not bind	
N#Cc1ccc(NC(=O)c2nc3c(N)ncnc3[nH]2)cc1 [ADAR1i-123]	did not bind	
N#Cc1ccc(NC(=O)c2cc3ccccc3s2)cc1 [ADAR1i-125]	did not bind	
N#Cc1ccc(NC(=O)c2[nH]c3ccccc3c2Cl)cc1 [ADAR1i-126]	did not bind	
COc1cccc2c1C(=O)c1c(O)c3c(c(O)c1C2=O)C[C@@](O)(C(=O)CO)C[C@@H]3O[C@H]1C[C@H](N)[C@H](O)[C@H](C)O1 [Doxorubicin]		Acute apoptosis detected by reduction of FFL activity (HeLa-Nluc-edit cells): induces acute apoptosis
